Where a name gives a salt, the structure may show the parent alone.

Experimental findings from patent publication US4406903A, “Xanthine derivatives useful as antidepressives” (John Wyeth and Brother Limited, priority 1981, dated 1983) are described below.

Assay [1] concerns 5-hydroxytryptamine uptake. Put plainly: Inhibition of 5-Hydroxytryptamine Uptake in Brain Slices (Procedure 1). The format is cell-based, rat. The following applies: for inhibition at 0.1 µM / inhibition at 1 µM / inhibition at 10 µM: rat cerebral cortex slices, 3H 5-hydroxytryptamine 10^-7 M; for Inhibition of 5-hydroxytryptamine uptake, potency ratio compared with imipramine: IC50-based ratio versus imipramine, rat brain slices; for Potency in 5-hydroxytryptamine tests (in words, versus imipramine): qualitative comparison with the standard inhibitor imipramine. The method, then: (§1) Inhibition of 5-Hydroxytryptamine or Noradrenaline Uptake in Brain Slices
Two rates (weighing 170-200 g) are decapitated and the brains rapidly removed and placed in ice-cold Krebs solution. The cerebral cortex on each side of the median line is opened out flat and cut to give two slabs of even thickness. The slabs are weighed and then sliced on a McIlwain tissue chopper. The tissue is sliced twice, the second cutting being at an angle of 45° to the first. The interval of cutting is 0.1 mm. The slices are transferred to a 5 ml conical flask and Krebs solution is added in the proportion 5 ml/g tissue. The slices are dispersed in the solution by sucking up and down in a Pasteur pipette. When a satisfactory suspension is achieved it is pipetted in 50 μl portions into 25 ml conical flasks containing 4.5 ml chilled Krebs solution. An Eppendorf pipette with the tip cut back to about 1 mm diameter is used. The suspension is kept well mixed at this stage so that each portion taken contains the same amount of tissue (~10 mg). The flasks are gassed with 95% O2 /5% CO2 and sealed with aluminium foil. They are then placed in a water bath at 27° for 15 minutes pre-incubation.
Flasks in groups of four are then each treated by an addition in 0.5 ml. to achieve the following concentrations in the medium. […]
______________________________________
GROUP CONCENTRATION (CONCENTRATION)
A 10^-7 M TEST COMPOUND (10^-5 M)
B 10^-7 M IMIPRAMINE (10^-5 M)
C 10^-7 M IMIPRAMINE (10^-6 M)
D 10^-7 M IMIPRAMINE (10^-7 M)
After 20 minutes incubation the slices are filtered off in filter funnels connected to a vacuum line. Each flask in rinsed with 5 ml Krebs which is also poured through the filter funnel followed by a further 5 ml Krebs. For group F the treatment differs in that ^3 H 5-hydroxytryptamine in 0.5 ml is added immediately before filtration. This gives an estimation of the amount of activity retained by the filter from the solution together with the amount of non-specific binding by the tissue.
(§2) The filter papers are placed in scintillation vials and soaked in 4 ml ethanol/methanol (3:1 v/v) for at least 45 minutes before addition of 10 ml liquid scintillator after which the samples are counted in a liquid scintillation counter.
Uptake inhibition is expressed as follows: [formula] […] In this case a dose response experiment is carried out with the test compound and impramine at concentrations of 10^-5 M, 10^-6 M and 10^-7 M. The % inhibition is again calculated in the same way and the results are plotted as % inhibition against log compound concentration. The molar concentration which inhibits uptake by 50% (IC50) is determined. The potency ratio compared to imipramine is calculated as: [formula]

Assay [2] deals with noradrenaline uptake. Put plainly: Inhibition of Noradrenaline Uptake in Brain Slices (Procedure 1). Type of assay: cell-based, rat. The following applies: 3H-noradrenaline 10^-7 M; active if % inhibition at 10^-6 M is at least that of imipramine at 10^-7 M. Here is the method: as §1
Two rates (weighing 170-200 g) are decapitated and the brains rapidly removed and placed in ice-cold Krebs solution. The cerebral cortex on each side of the median line is opened out flat and cut to give two slabs of even thickness. The slabs are weighed and then sliced on a McIlwain tissue chopper. The tissue is sliced twice, the second cutting being at an angle of 45° to the first. The interval of cutting is 0.1 mm. The slices are transferred to a 5 ml conical flask and Krebs solution is added in the proportion 5 ml/g tissue. The slices are dispersed in the solution by sucking up and down in a Pasteur pipette. […]
as §2
Uptake inhibition is expressed as follows: [formula] […] In this case a dose response experiment is carried out with the test compound and impramine at concentrations of 10^-5 M, 10^-6 M and 10^-7 M. The % inhibition is again calculated in the same way and the results are plotted as % inhibition against log compound concentration. […] The potency ratio compared to imipramine is calculated as: [formula] […]

Assay [3] relates to 5-hydroxytryptamine reuptake. Put plainly: Inhibition of 5-hydroxytryptamine reuptake in rat cortical synaptosomes (Procedure 2). The following applies: for Selectivity Ratio (5-HT uptake over NA uptake): from IC50 values of NA and 5-HT uptake; for IC50: 10^-7 M 14C-5-hydroxytryptamine, 37° C., 4 min, pH 7.4, read-out: 5-HT Uptake IC50. Type of assay: biochemical. The text has this: (§3) Inhibition of 5-hydroxytryptamine and L-noradrenaline reuptake in rat cortical synaptosomes
(§4) "The isolation of nerve endings from brain: An electron microscopic study of cell fragments dervied by homogenisation and centrifugation."
(§5) Test object: Purified rat cortical synaptosomes (P2 B) from 8-10 male albino rats (190-250 g).
Procedure: Rats are stunned and then killed by decapitation. The brain is quickly removed and the cortex excised essentially free of striatum and mid-brain. […] The homogenate of concentration 10% w/v in 0.32 sucrose is centrifuged at an average centrifugal force of 1000×g for 10 minutes and the supernatant is decanted and centrifuged at an average of 10000×g for 20 min to obtain the crude mitochondrial pellet (P2). […] The synaptosomes are then centrifuged in a swing-out rotor at 97 000×g average for 30 min. […] (2 ml/g original tissue). Throughout the procedure, it is essential to maintain the tissue and synaptosomes at […]. Synaptosomes should be used within three hours of preparation. A 100 μl aliquot of this synaptosomal suspension (2.5-3.0 mg protein/ml) is added to the incubation medium (900 μl) which has been preincubated at 37° C. for 5 min. […] All reagents are of `Analar` grade and glass distilled water is used.
The quantity of material prepared per experiment would normally be sufficient to examine the effects of 30 different treatments (e.g. 6 compounds each at 5 concentrations in triplicate). […] The filters are then washed with 2.4 ml incubation medium. The radioactivity retained on the filter is determined by the addition of Instagel (10 ml) (Packard) and subsequent liquid scintillation counting to convert results into dpm. The non-specific binding and passive accumulation of both amines is corrected for by determining uptake in a sodium-free medium. Percentage inhibition of uptake is calculated as [formula] where background dpm is that accumulated in a sodium-free medium.
Assays are run in triplicate, with 2 or 3 control and background determinations inserted randomly. The selectivity ratio is calculated as: [formula]

Assay [4] relates to L-noradrenaline reuptake. The experiment in a line: Inhibition of L-noradrenaline reuptake in rat cortical synaptosomes (Procedure 2). Type of assay: biochemical. The following applies: 10^-7 M 3H-L-noradrenaline, 37° C., 4 min, pH 7.4, read-out: NA Uptake IC50.
Text: as §3
Ref: E. G. Gray and V. P. Whittaker (1962). J. Anat 96, p 79-88.
as §4, §5
Procedure: Rats are stunned and then killed by decapitation. The brain is quickly removed and the cortex excised essentially free of striatum and mid-brain. The tissue is then gently homogenised (10 strokes at 840 rpm) in 0.32 M sucrose. […]
Test compounds may be present in 4 to 6 concentrations depending on previous experience, but normally the range would be 10^-9 M to 10^-6 M for an active compound. The quantity of material prepared per experiment would normally be sufficient to examine the effects of 30 different treatments (e.g. 6 compounds each at 5 concentrations in triplicate). […] The radioactivity retained on the filter is determined by the addition of Instagel (10 ml) (Packard) and subsequent liquid scintillation counting to convert results into dpm. […] Percentage inhibition of uptake is calculated as [formula] where background dpm is that accumulated in a sodium-free medium. […]

By inhibition is commonly meant the drop in the measured response relative to a control, in per cent. A higher inhibition goes with strong suppression. The IC50 is the concentration that inhibits the measured activity by half. Turning to `Cn1c(=O)c2c(ncn2CCCNCCc2c[nH]c3ccc(O)cc23)n(C)c1=O` [Example 1, 5-hydroxy-N-[3-(theophyllin-7-yl)propyl]tryptamine hydrochloride hemihydrate], in assay [1], at 0.1 µM the inhibition was 44%; at 1 µM the inhibition was 77%; testing at 10 µM gave an inhibition of 84%; the “Inhibition of 5-hydroxytryptamine uptake, potency ratio compared with imipramine” value is 4.3. Further, in assay [1], the “Potency in 5-hydroxytryptamine tests (in words, versus imipramine)” value is reported as “considerably more potent than imipramine”. Besides, the “Inhibition of noradrenaline uptake” value in assay [2] is reported as “INACTIVE”. In assay [3] (rat cortical synaptosomes), the “Selectivity Ratio (5-HT uptake over NA uptake)” value is given as over 167 and the IC50 turned out to be 60 nM. In addition, the “Selectivity of action (in words)” value in assay [3] (qualitative, 5-HT versus NA uptake) is recorded as “very selective in its action”. For the same compound, the “Inhibition of 5-HT uptake (in words)” value in assay [3] (qualitative, rat cortical synaptosomes) is listed as “very potent inhibitor of 5-HT uptake”. The IC50 in assay [4] is over 10000 nM.

Take `Cn1c(=O)c2c(ncn2CCCNCCc2c[nH]c3ccccc23)n(C)c1=O` [Example 3, N-[3-theophyllin-7-yl)propyl]tryptamine hydrochloride]: in assay [1], the inhibition at 0.1 µM worked out at 4%; at 1 µM the inhibition was 43%; the inhibition at 10 µM was 77%; the “Inhibition of 5-hydroxytryptamine uptake, potency ratio compared with imipramine” value came to 0.8. Further, the “Potency in 5-hydroxytryptamine tests (in words, versus imipramine)” value in assay [1] is listed as “about the same order of potency as the standard inhibitor imipramine”. In assay [2], the “Inhibition of noradrenaline uptake” value is recorded as “INACTIVE”.

Consider `CN(C)CCCN1c2ccccc2CCc2ccccc21` [imipramine, reference compound], for which, in assay [3] (rat cortical synaptosomes), the “Selectivity Ratio (5-HT uptake over NA uptake)” value was 0.5 and the half-maximal inhibitory concentration (IC50) was 100 nM. Moreover, the IC50 in assay [4] came to 50 nM.
